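1) Cells in 96-well plates. 2) Compound, 48 h, 5 concentrations. 3) Linear interpolation between surrounding doses. 4) Unreached endpoint = highest concentration. At the GI50, growth is halved.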 Activity calls are given as the source filed them. No stated cut-off is given here; in the data, active = GI50 up to about 1.1 µM and inactive = higher.
Columns and labels:
Assay in all cases: NCI anticancer screen, dose series, 48 h
BT-549 = test system: BT-549
MDA-MB-435 = test system: MDA-MB-435
MCF7 = test system: MCF7
A498 = test system: A498
SK-MEL-2 = test system: SK-MEL-2
PC-3 = test system: PC-3
HCT-116 = test system: HCT-116
NCI-H23 = test system: NCI-H23
ACHN = test system: ACHN
T47D = test system: T47D
SNB-19 = test system: SNB-19
CAKI-1 = test system: CAKI-1
NCI/ADR-RES = test system: NCI/ADR-RES
COLO 205 = test system: COLO 205
IGROV-1 = test system: IGROV-1
SF-295 = test system: SF-295
EKVX = test system: EKVX
SN12C = test system: SN12C
HT-29 = test system: HT-29
KM12 = test system: KM12

Measured: GI50

O=c1oc2ccc(Cl)cc2c2ccccc12
inactive: BT-549 13.4 µM | MDA-MB-435 > 100 µM | MCF7 53.2 µM | A498 75.7 µM | SK-MEL-2 18.6 µM | PC-3 > 100 µM | HCT-116 76.2 µM | NCI-H23 23.8 µM | ACHN > 100 µM | T47D > 100 µM | SNB-19 20 µM | CAKI-1 43 µM | NCI/ADR-RES 84.1 µM | COLO 205 65.8 µM | IGROV-1 71.8 µM | SF-295 34.4 µM | EKVX 10.8 µM | SN12C > 100 µM | HT-29 > 100 µM

N[C@H](CCC(=O)NCP(=O)(O)O)C(=O)O
inactive: BT-549 > 100 µM | MDA-MB-435 > 100 µM | MCF7 > 100 µM | A498 > 100 µM | SK-MEL-2 > 100 µM | PC-3 > 100 µM | HCT-116 > 100 µM | KM12 > 100 µM | NCI-H23 > 100 µM | ACHN > 100 µM | T47D > 100 µM | SNB-19 > 100 µM | NCI/ADR-RES > 100 µM | COLO 205 > 100 µM | IGROV-1 > 100 µM | SF-295 5.33 µM | EKVX > 100 µM | SN12C > 100 µM | HT-29 > 100 µM

Clc1ncnc2c1nc(C#Cc1ccccc1)n2Cc1ccccc1
inactive: BT-549 20.8 µM | MDA-MB-435 11.9 µM | MCF7 23 µM | A498 > 100 µM | SK-MEL-2 30 µM | PC-3 40.6 µM | HCT-116 34 µM | KM12 23.6 µM | NCI-H23 16.6 µM | ACHN 65.2 µM | T47D 39.8 µM | SNB-19 29.9 µM | CAKI-1 18.2 µM | NCI/ADR-RES 60 µM | COLO 205 16.5 µM | SF-295 > 100 µM | EKVX 13.3 µM | SN12C 18.8 µM | HT-29 24.3 µM

CN(C)CCNC(=O)c1cccc(C(=O)Nc2ccccc2)c1[N+](=O)[O-]
inactive: BT-549 34 µM | MDA-MB-435 > 100 µM | MCF7 > 100 µM | A498 > 100 µM | SK-MEL-2 > 100 µM | PC-3 > 100 µM | HCT-116 > 100 µM | KM12 > 100 µM | NCI-H23 > 100 µM | ACHN > 100 µM | T47D > 100 µM | SNB-19 > 100 µM | CAKI-1 > 100 µM | NCI/ADR-RES > 100 µM | COLO 205 54.2 µM | IGROV-1 > 100 µM | SF-295 > 100 µM | SN12C > 100 µM | HT-29 71.8 µM

COc1ccc2c(c1)CC[C@@H]1[C@@H]2CC[C@]2(C)C(=O)/C(=C/c3ccc(C#N)cc3)C[C@@H]12
inactive: BT-549 > 100 µM | MDA-MB-435 > 100 µM | MCF7 > 100 µM | A498 > 100 µM | SK-MEL-2 > 100 µM | PC-3 > 100 µM | HCT-116 > 100 µM | KM12 > 100 µM | NCI-H23 > 100 µM | ACHN > 100 µM | T47D > 100 µM | SNB-19 > 100 µM | CAKI-1 > 100 µM | NCI/ADR-RES > 100 µM | COLO 205 > 100 µM | IGROV-1 > 100 µM | SF-295 81.3 µM | EKVX > 100 µM | SN12C > 100 µM

Cc1n[nH]c(=O)n1/N=C/c1c[nH]c2ccccc12
inactive: BT-549 38.4 µM | MDA-MB-435 > 100 µM | MCF7 > 100 µM | A498 > 100 µM | SK-MEL-2 > 100 µM | PC-3 > 100 µM | HCT-116 > 100 µM | KM12 > 100 µM | NCI-H23 80.5 µM | ACHN > 100 µM | T47D > 100 µM | SNB-19 > 100 µM | CAKI-1 > 100 µM | NCI/ADR-RES > 100 µM | COLO 205 > 100 µM | IGROV-1 35.2 µM | SF-295 > 100 µM | EKVX 50.7 µM | SN12C > 100 µM

From ChEMBL document CHEMBL1201862, “PubChem BioAssay data set” (2004)
